Assay results reported in patent US20240216343A1, “ENDOTHELIAL IK AND SK CHANNEL ACTIVATION TO TREAT PULMONARY HYPERTENSION” (UNIVERSITY OF VIRGINIA PATENT FOUNDATION, priority 2023, published 2024).
Entries after “also recorded” stand apart in the source; their conditions may differ.

What was measured:
fourth-order PAs = experiment: Pressure myography of mouse fourth-order PAs
Description: Mouse fourth-order PAs (˜50 μm) were cannulated on glass micropipettes in a pressure myography chamber (The Instrumentation and Model Facility; University of Vermont; Burlington; VT; USA) and pressurized to a physiological pressure of 15 mm Hg (24). Briefly, freshly dissected lungs were placed in ice cold HEPES buffer in a dissection plate. The left lung was stretched and pinned down, with ventral side facing up. First, pulmonary veins, and then the airway were cut open to gain access to the pulmonary arteries underneath. Once PAs were visible, they were gently separated from surrounding tissue (25). Arteries were superfused with bicarbonate-physiological salt solution (PSS; 119 mmol/L NaCl; 4.7 mmol/L KCl; 1.2 mmol/L KH2PO4; 1.2 mmol/L MgCl2 hexahydrate; 2.5 mmol/L CaCl2) dihydrate; 7 mmol/L dextrose; and 24 mmol/L NaHCO3) at 37° ° C. and bubbled with 20% O2/5% CO2 to maintain the pH at 7.4. Approximately 20% PAs from normal mice develop myogenic tone, whereas ˜65% PA from Su+CH mice show myogenic tone at 15 mm Hg. Due to the relatively small percentage of PAs from normal mice showing myogenic tone, we pre-constricted all PAs with 30 nmol/L U46619 (a thromboxane A2 receptor agonist). […] U46619 was added to the chamber immediately, before the arteries could develop myogenic tone. Before measuring vascular reactivity, arteries were treated with NS309 (1 μmol/L), a direct activator of endothelial IK/SK channels, to assess endothelial health. […] Changes in arterial diameter were recorded at a 60-ms frame rate using a charge-coupled device camera and edge-detection software (IonOptix LLC; Westwood; MA; USA) (11, 26). At the end of each experiment, Ca^2+-free PSS (119 mmol/L NaCl; 4.7 mmol/L KCl; 1.2 mmol/L KH2PO4; 1.2 mmol/L MgCl2 hexahydrate; 7 mmol/L dextrose; 24 mmol/L NaHCO3; and 5 mmol/L EGTA) was applied to assess the maximum passive diameter. Percent constriction was calculated by:
[formula] • where Diameterbefore is the diameter of the artery before treatment and Diameterafter is the diameter after treatment. Percent dilation was calculated by:
[formula] • where Diameterbasal is the stable diameter before drug treatment, Diameterdilated is the diameter after drug treatment, and Diameterca-free is the maximum passive diameter.

large PAs = settings: rats exposed to chronic hypoxia; reference (49); cited from earlier work
IK/SK channels = settings: reference (37); cited from earlier work
[1] = reference (33); cited from earlier work
[2] = cited from earlier work
[3] = Cardiac functional magnetic resonance imaging; assay type: in vivo, mouse; settings: acute SKA-31 administration
Su+CH mouse model of PH [4] = experiment: Chronic treatment: RVSP, Fulton index and PA remodeling (histology, immunostaining); assay type: in vivo
Method: (§1) PH was induced by exposing C57BL6/J mice to chronic hypoxia (CH; 10% 02: 4 weeks) with concurrent treatment with the receptor tyrosine kinase inhibitor, SU5416 (20 mg·kg^−1), administered subcutaneously (s.c.) once a week (20). SU5416 was dissolved in DMSO/PEG 400 (50/50). Mice were exposed to CH conditions in a vinyl hypoxic chamber (Coy Laboratory Products; Inc. Grass Lake; MI; USA) connected to an auto purge airlock inlet. Oxygen concentration in the glove box was regulated by an oxygen controller and oxygen sensor (Coy Laboratory Products, Inc.). Control mice were maintained in room air for 4 weeks.
For PA remodeling studies, mice in the experimental group were treated with the IK/SK channel activator, SKA-31 (30 mg·kg^−1; i.p.), twice a day for the final 7 days of Su+CH exposure. Control mice were exposed to Su+CH for 4 weeks but were injected with vehicle instead of SKA-31. At the end of week 4 of Su+CH exposure, mice were euthanized with pentobarbital (90 mg·kg^−1; i.p.; UVA Hospital Pharmacy) and left lungs were perfused with the NO donor and fast-acting vasodilator, SNP (50 μmol/L; Sigma Aldrich), followed by incubation overnight at room temperature with 4% paraformaldehyde (PFA) for histology and immunostaining.
(§2) Mice were anesthetized with pentobarbital (50 mg·kg^−1; i.p.), and bupivacaine HCl (100 μL of 0.25% solution; s.c.) was used to numb the dissection site on the mouse. RVSP was measured as an indirect indicator of PAP (18, 21). Mice were cannulated with a Mikro-Tip pressure catheter (SPR-671; Millar Instruments; Houston; TX; USA), connected to a bridge amp (FE221) and a PowerLab 4/35 4-channel recorder (ADInstruments; Colorado Springs; CO; USA), through the external jugular vein into the right ventricle. Right ventricular pressure was acquired and analyzed using LabChart8 software (ADInstruments). In the subgroup of mice treated with SKA-31 (30 mg·kg^−1; i.p.), RVSP was measured before SKA-31 injection and 20 minutes after. A stable 3-minute recording was acquired for all animals, and a 1-minute continuous segment was used for data analysis. Where necessary, traces were digitally filtered using a low-pass filter at a cut-off frequency of 50 Hz. At the end of experiments, mice were euthanized, and their hearts were isolated for right ventricular hypertrophy analysis. Right ventricular hypertrophy was determined by calculating the Fulton index, a ratio of the right ventricular (RV) heart weight over the left ventricular (LV) plus septum (S) weight (RV/LV+S).
Isolated left lungs were perfused with PBS containing 50 μmol/L SNP and fixed in 4% PFA overnight at room temperature before paraffin embedding and sectioning. After sectioning paraffinized lungs, sections (5-μm thick) were deparaffinized and incubated in endogenous peroxidase (30%) for 30 minutes at room temperature, followed by a 5-minute wash with double-distilled H2O. For antigen retrieval, sections were microwaved in a citrate-based antigen unmasking solution (Vector Laboratories; Newark; CA; USA) for 20 minutes with brief pauses to avoid boiling. After allowing slides to cool in the antigen unmasking solution for 1 hour at room temperature, sections were permeabilized by incubating with 0.2% Triton-X for 30 minutes on a shaking rocker at room temperature, then blocked by incubating with 0.2% Triton-X, 5% normal donkey serum (ab7475; Abcam; Cambridge; MA; USA) and fish skin gelatin (FSG; Sigma Aldrich) for 1 hour. […]

Su+CH mouse model of PH [5] = experiment: RVSP measurement after acute treatment; assay type: in vivo
Method: as §1, §2

[6] = system: IK/SK channels in SMCs from PAs; experiment: Whole-cell patch-clamp in freshly isolated SMCs from small PAs; assay type: cell-based, mouse; settings: TRAM-34 1 μmol/L and Apa 300 nmol/L added together after NS309 1 μmol/L; SMCs from control or Su+CH mice
Method: For SMC isolation (27), arterial segments were transferred to a 12×75 mm borosilicate glass culture tube containing 1 mL dissociation solution (145 mmol/L NaCl; 4 mmol/L KCl; 1 mmol/L MgCl2; 10 mmol/L HEPES; 0.05 mmol/L CaCl2), 10 mmol/L glucose; pH 7.3) and 0.5 mg/mL bovine serum albumin (BSA) and incubated for 10 minutes at room temperature (˜24° C.). The solution was then replaced with 1 mL dissociation solution containing 1 mg/mL papain (Sigma Aldrich) and 0.5 mg/mL dithiothreitol (Sigma Aldrich), and incubation was continued at 37° C. for 20 minutes. […]
Whole-cell currents were measured at room temperature using conventional whole-cell patch-clamp electrophysiology. […] The pipette solution for conventional patch clamp consisted of 10 mmol/L HEPES, 123.2 mmol/L KCl, 10 mmol/L NaCl, 5.5 mmol/L MgCl2, 0.2 mmol/L CaCl2) and 5 mmol/L HEDTA (adjusted to pH 7.2 with 16.8 mm KOH) and contained 3 μm free-Ca^2+ and 1 mmol/L free-Mg^2+, as calculated using the Max-Chelator program (Chris Patton; Stanford University; Stanford; CA; USA). […] Data were acquired using a Multiclamp 700B amplifier connected to a Digidata 1550B system and analyzed using Clampfit 11.1 software (Molecular Devices, San Jose, CA, USA).
NS309-induced ionic currents were measured in freshly isolated SMCs (FIG. 4A) from PAs in whole-cell patch-clamp experiments (FIGS. 4B and 4C).

[7] = 30 mg·kg−1 i.p. twice a day for 7 days

In the case of `Nc1ncnc2c1ncn2[C@@H]1O[C@H](COP(=O)(O)OP(=O)(O)OP(=O)(O)O)[C@@H](O)[C@H]1O` [ATP, adenosine triphosphate], the “Dilation of PAs from CH+Su mice” value (fourth-order PAs; CH+Su mice) is reported as “unable to dilate”.
With `NC(=NCCC[C@H](N)C(=O)O)N[N+](=O)[O-]` [L-NNA] the “Constriction of PAs from Su+CH mice” value (fourth-order PAs; L-NNA 100 μmol/L, Su+CH mice) was “unable constrict” and the “Constriction of PAs from N mice” value (fourth-order PAs; L-NNA 100 μmol/L, normoxic mice) was ~20%.
For `CCn1c(=O)n(CC)c2c(Cl)c(Cl)ccc21` [NS4591], the “Dilatory response of large PAs after chronic hypoxia” value (large PAs) is listed as “decreases”.
For `Nc1nc2c(ccc3ccccc32)s1` [SKA-31, naphtho[1,2-d]thiazol-2-ylamine], the “Potency as activator of IK/SK channels relative to NS309” value (IK/SK channels) is given as “less potent”, the “Resting systemic blood pressure” value [1] is given as “lowered” and the Metabolism ([2]; reason for in vivo use instead of NS309, reference (33)) is given as “favorable metabolism”. The Half-life in vivo ([2]; references (37, 38)) was “longer half-life”, the Cardiac output [3] was “does not alter” and the Ejection fraction [3] was “does not alter”. The Heart rate [3] was “does not alter”, the Stroke volume [3] was “does not alter” and the “Collagen content of PAs (Masson's Trichrome) in Su+CH mice” value (Su+CH mouse model of PH [4]; [7]) was “reduced”. For the same compound, the “Fulton index (right ventricular hypertrophy) in Su+CH mice, chronic treatment” value (Su+CH mouse model of PH [4]; [7]) was “significantly lowered; also recorded: reduced”, the “α-actin immunostaining of PAs in Su+CH mice” value (Su+CH mouse model of PH [4]; [7]) was “reduced” and the “RVSP in Su+CH mice, chronic treatment” value (Su+CH mouse model of PH [4]; 30 mg·kg−1 i.p. twice a day for 7 days, fourth week of Su+CH) was “significantly lowered”. For the same compound, the “Pulmonary artery lesions in Su+CH mice, chronic treatment” value (Su+CH mouse model of PH [4]; chronic SKA-31) was “reduced”, the “RVSP in Su+CH mice, acute treatment” value (Su+CH mouse model of PH [5]; 30 mg·kg−1 i.p., RVSP before and 20 minutes after injection, Su+CH mice) was “significantly reduced; also recorded: lowered” and the “RVSP in normal (N) mice, acute treatment” value (Su+CH mouse model of PH [5]; 30 mg·kg−1 i.p., normoxic/control mice) was “not in N mice; also recorded: not observed in normal mice; also recorded: not in control mice”. The “PAP in Su+CH mice, acute treatment” value (Su+CH mouse model of PH [5]; acute SKA-31, Su+CH mice but not control mice) was “lowered”.
For `Clc1ccccc1C(c1ccccc1)(c1ccccc1)n1cccn1` [TRAM-34], the “Constriction of small PAs” value (fourth-order PAs; TRAM-34 1 μmol/L and Apa 300 nmol/L applied together, not different between N and Su+CH mice) was ~10% and the “Effect on NS309-induced outward currents in SMCs” value [6] was “did not reduce”.
For `CCCCC[C@H](O)/C=C/[C@@H]1[C@@H](C/C=C\CCCC(=O)O)[C@H]2CO[C@@H]1C2` [U46619], the “Arteries showing a constriction” value (fourth-order PAs; U46619 30 nmol/L, both normal and PH groups) was “More than 95%”.
